Assay results from patent US20110076331A1, “Use of Deuterium Oxide as an Elastase Inhibitor” (priority 2008, published 2011).

How the values were obtained:
[1] = tested on: white New Zealand rabbits; experiment: Animal model for myocardial reperfusion damage (coronary artery ligature); type: in vivo, rabbit; conditions: intravenous D2O isotonic saline 15 minutes before or 25 minutes after reopening of the coronary artery; vs H2O-treated animals
Description: In an animal model for reperfusion damage a reduced blood supply to the heart muscle tissue was achieved by ligature of a coronary artery in male white New Zealand rabbits, which led to damage (Bidouard, J. P. et al.; SSR69071, an elastase inhibitor, reduces myocardial infarct size following ischemia reperfusion injury, Eur J Pharmacol. 2003; 461:49-52). By thoracotomy a side branch of the left coronary artery was closed by ligature for 30 minutes and then opened again in order to achieve reperfusion over 120 minutes. Before removal of the heart an ink bolus (pelican ink) was introduced to the ascending aorta. To investigate the effect of D2O on reperfusion damage the animals were divided into three groups of two animals each. Two groups received an intravenous treatment with D2O in the form of isotonic saline either 15 minutes before (experimental group 1) or 25 minutes after (experimental group 2) reopening of the coronary artery, the other group (control group) was treated with H2O as isotonic saline. After removal of the heart, unclamping of the aorta, formalin fixation and paraffin embedding the heart was investigated for homogeneity of ink distribution in the capillary system through three cross sections and by immunohistochemistry. The immunohistochemical detection of granulocytes occurred by a-naphthol chloroacetate esterase staining. […]

[2] = tested on: patients with psoriasis vulgaris; experiment: Half-side hydrogel experiment in psoriasis vulgaris; type: in vivo, human; conditions: 2 wt % Carbopol 980 gel with 1 wt % urea, twice a day, after 4 weeks; vs H2O gel
Description: A half-side experiment was conducted by means of hydrogel to determine the effect of D2O in psoriasis vulgaris. The gel was a 2 wt % Carbopol 980 with 1 wt % urea. The pH value of the gel was set at 6.5 with NaOH solution. […] The local psoriasis severity index (LPSI) was used for evaluation (Henneicke-von Zepelin, H. H., Mrowietz, U., Färber, L., Bruck-Borchers, K., Schober, C., Huber, J., Lutz, G., Kohnen, R., Christophers, E., Welzel, D., Highly purified omega-3-polyunsaturated fatty acids for topical treatment of psoriasis. Results of a double-blind, placebo-controlled multicenter study. Br J Dermatol. 1993; 129:713-7). The patients were relied on to apply the content of tubes marked “right” and “left” twice a day on the corresponding lesions on the right or left elbow. A gel produced with D2O was found in one tube, the gel in the other tube was prepared with H2O. Division occurred randomly. LPSI was determined once a week.

[3] = tested on: subjects with colds accompanied by severe nasal obstruction; experiment: Decongestion of nasal mucosa (rhinomanometry); type: in vivo, human; conditions: one pump spray of D2O saline in each nostril
Description: Physiological saline was prepared from D2O (experiment group) and H2O (control group) and filled into a pump spray container as is ordinarily used to release nasal spray. Subjects with colds accompanied by severe nasal obstruction were divided into two groups of eight subjects each. Air flow through the nose was determined by rhinomanometry (initial value) in each subject right before treatment (after thorough removal of secretions). The subjects of the experimental group then each received one pump spray of D2O saline in each nostril, while the subjects of the control group received H2O saline instead in the same amount. Thirty and 60 minutes after application air flow was determined in each subject by rhinomanometry and the percent change of air flow relative to the initial value was calculated. From these values an average was formed for the verum and control groups (average percentage change in air flow <Lf%>). A positive value of <Lf%> indicates an increase, a negative value a reduction in air flow. For the experimental group after 30 minutes a value of <Lf%>=20±5% and after 60 minutes <Lf%>=90±10% was obtained. The control group gave <Lf%>=10±5% after 30 minutes and <Lf%>=5±5% after 60 minutes.

[4] = tested on: subjects with the minor form of RBA; experiment: Gel treatment of recurring benign aphthosis (RBA); type: in vivo, human; conditions: D2O gel (example 1) three times a day; three days after first application
Description: Eight volunteer subjects with the minor form of RBA (diameter of round to oval erosion is 3-5 mm) at locations of the oral mucosa readily accessible to optical inspection (and especially cheek mucosa and mucosa in the lower jaw area) were randomized into two groups of four subjects each (experimental group and control group) and the size (diameter) of the aphthae (initial value) was determined precisely at 0.5 mm optically. For size determination only the gray-covered eroded surface was considered and the red edge area was not considered. The first aphthosis symptoms of the subjects in both groups were at least 2 days old and at most 4 days old. The experimental group received a D2O gel prepared according to example 1 three times a day applied with an appropriate applicator to the erosion (aphtha). It was ensured that the applied gel covered the entire surface of the aphtha plus a 2-3 mm wide edge and was allowed to act at least for 5 minutes. The control group was treated similarly with an identical dose and application of an H2O prepared according to example 1. […] For the experimental group an average reduction in diameter relative to the initial value of 30±10% can be detected and in the control group an average increase in aphthae diameter by 15±10% was observed.

SMILES: [2H]O[2H] [D2O, deuterium oxide]
- heart muscle damage (granulocytes, capillary ink marking) [1]: significantly lower heart muscle damage
- local psoriasis severity index (LPSI) [2]: significant reduction of LPSI
- average percentage change in air flow <Lf%> ([3]; after 30 minutes): 20±5%
- average percentage change in air flow <Lf%> ([3]; after 60 minutes): 90±10%
- average reduction in aphthae diameter relative to the initial value [4]: 30±10%
